One assay concerns GPR113 KO mice. The assay can be described thus: brief-access licking paradigms in WT and GPR113 KO mice. The format is in vivo. The note with it: for licking response of GPR113 KO mice compared with WT: GPR113 KO versus WT; for licking in response to increasing concentrations: WT mice. The procedure: FIG. 10 contains mean (±SE) number of licks taken to a range of soybean oil concentrations and the vehicle emplex measured during 5-second trials in wild-type (WT; closed circles) and GPR113 knockout (KO; open circles) mice.
Several groups of mice underwent behavioral testing. […] We also tested groups of mice in brief-access licking paradigms. […] Mineral oil was tested as a control for viscosity.

The subject of a further assay is GLX mice. The assay can be described thus: brief access licking after glossopharyngeal nerve transection (GLX). The format is in vivo. The note with it: C57Bl/6 mice, GLX versus SHAM. As for the experimental part:
C57Bl/6 mice (Harlan) were trained to lick in the brief access licking. Following training mice were balanced for body weight and average number of licks per trial to water during training and assigned to a surgery group. Mice were allowed to recover for at least two weeks following surgery. They were given two days of licking to water (shutter training), food was taken away overnight and they were tested for their licking responses to soybean oil in […] over 2 days of testing. The next week they were tested in the same manner to sucrose. Following the last day of testing, mice were euthanized and their tongues were taken for histological analysis. CV papilla were cross sectioned and stained with hematoxylin/eosin. An observer blind to the surgical condition counted taste buds.

For the compound `[Cl-].[K+]` [KCl], the “licking response of GPR113 KO mice compared with WT” value (shortened to “licking response … compared with WT”) with GPR113 KO mice is reported as “responded similarly”. Regarding `C=C[C@H]1C[N@@]2CC[C@H]1C[C@H]2[C@H](O)c1ccnc2ccc(OC)cc12` [quinine], the “licking response … compared with WT” value in the assay with GPR113 KO mice is on record as “responded similarly”. As for `O=C(O)CC(O)(CC(=O)O)C(=O)O` [citric acid], the “licking response … compared with WT” value in the assay on GPR113 KO mice is given as “responded similarly”.

Turning to `[Cl-].[Na+]` [NaCl], the “licking response … compared with WT” value with GPR113 KO mice was “responded similarly”. As to `OC[C@H]1O[C@@](CO)(O[C@H]2O[C@H](CO)[C@@H](O)[C@H](O)[C@H]2O)[C@@H](O)[C@@H]1O` [sucrose], the “licking response … compared with WT” value in the assay with GPR113 KO mice is “responded similarly”. Further, the “concentration-dependent licking in GLX mice relative to SHAM operated controls” value with GLX mice is “identical increases in licking”.

Regarding `CCCCC/C=C\C/C=C\CCCCCCCC(=O)O` [linoleic acid], in the assay with GPR113 KO mice, the “licking response … compared with WT” value is on record as “absent or significantly diminished” and the “licking in response to increasing concentrations” value is reported as “increased licking”. For `CCCCCCCC/C=C\CCCCCCCC(=O)O` [oleic acid] the same measures were “absent or significantly diminished” and “increased licking”.

Values taken from patent US20190265231A1, “GPCR (GPR113) INVOLVED IN FAT, FATTY ACID AND/OR LIPID-ASSOCIATED TASTE AND USE IN ASSAYS FOR IDENTIFYING TASTE MODULATORY” (SENOMYX, INC., priority 2015, published 2019).
